Results published in patent publication US12509431B2, “1,4-dihydroquinazolinone compounds and uses thereof” (Edgewise Therapeutics, Inc., priority 2022, dated 2025).

Legend:
Assay type in all cases: biochemical
Settings in all cases: Table 8
Porcine Atria myofibrils = experiment: Myofibril ATPase assay (PK/LDH NADH-coupled), atria myofibrils
Outline: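 Porcine atrial myofibril ATPase followed via PK/LDH-coupled NADH depletion, absorbance at 340 nm read every 1.5-2 min over 75 min. Slopes (mAU/min) normalized to vehicle as 100% and fit to a 4-parameter logistic; EC25% derived, plus EC50% for inhibitors.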

[1] = test system: Rabbit Skeletal myofibrils (rabbit psoas muscle); experiment: Myofibril ATPase assay (PK/LDH NADH-coupled), skeletal myofibrils
Outline: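 Rabbit psoas myofibrils in pCa (PIPES/CaCl2/EGTA, pH 7.0) buffer; ADP coupled via PK/LDH to NADH loss, read at 340 nm every 1.5–2 min for 75 min. Slopes normalized to vehicle (100%) and fit to 4-parameter logistic for EC25, plus EC50 for inhibitors.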

[2] = target: T1, Porcine Ventricle myofibrils (left ventricle of Yucatan minipigs) (Sus scrofa, UniProt P79293); experiment: Myofibril ATPase assay (PK/LDH NADH-coupled), ventricle myofibrils
T1 construct: Myofibrils from porcine cardiac muscle was isolated from the left ventricle of Yucatan minipigs; tissue Exemplar Genetics; host or cells: left ventricle of Yucatan minipigs
T1 sequence (P79293 whole entry): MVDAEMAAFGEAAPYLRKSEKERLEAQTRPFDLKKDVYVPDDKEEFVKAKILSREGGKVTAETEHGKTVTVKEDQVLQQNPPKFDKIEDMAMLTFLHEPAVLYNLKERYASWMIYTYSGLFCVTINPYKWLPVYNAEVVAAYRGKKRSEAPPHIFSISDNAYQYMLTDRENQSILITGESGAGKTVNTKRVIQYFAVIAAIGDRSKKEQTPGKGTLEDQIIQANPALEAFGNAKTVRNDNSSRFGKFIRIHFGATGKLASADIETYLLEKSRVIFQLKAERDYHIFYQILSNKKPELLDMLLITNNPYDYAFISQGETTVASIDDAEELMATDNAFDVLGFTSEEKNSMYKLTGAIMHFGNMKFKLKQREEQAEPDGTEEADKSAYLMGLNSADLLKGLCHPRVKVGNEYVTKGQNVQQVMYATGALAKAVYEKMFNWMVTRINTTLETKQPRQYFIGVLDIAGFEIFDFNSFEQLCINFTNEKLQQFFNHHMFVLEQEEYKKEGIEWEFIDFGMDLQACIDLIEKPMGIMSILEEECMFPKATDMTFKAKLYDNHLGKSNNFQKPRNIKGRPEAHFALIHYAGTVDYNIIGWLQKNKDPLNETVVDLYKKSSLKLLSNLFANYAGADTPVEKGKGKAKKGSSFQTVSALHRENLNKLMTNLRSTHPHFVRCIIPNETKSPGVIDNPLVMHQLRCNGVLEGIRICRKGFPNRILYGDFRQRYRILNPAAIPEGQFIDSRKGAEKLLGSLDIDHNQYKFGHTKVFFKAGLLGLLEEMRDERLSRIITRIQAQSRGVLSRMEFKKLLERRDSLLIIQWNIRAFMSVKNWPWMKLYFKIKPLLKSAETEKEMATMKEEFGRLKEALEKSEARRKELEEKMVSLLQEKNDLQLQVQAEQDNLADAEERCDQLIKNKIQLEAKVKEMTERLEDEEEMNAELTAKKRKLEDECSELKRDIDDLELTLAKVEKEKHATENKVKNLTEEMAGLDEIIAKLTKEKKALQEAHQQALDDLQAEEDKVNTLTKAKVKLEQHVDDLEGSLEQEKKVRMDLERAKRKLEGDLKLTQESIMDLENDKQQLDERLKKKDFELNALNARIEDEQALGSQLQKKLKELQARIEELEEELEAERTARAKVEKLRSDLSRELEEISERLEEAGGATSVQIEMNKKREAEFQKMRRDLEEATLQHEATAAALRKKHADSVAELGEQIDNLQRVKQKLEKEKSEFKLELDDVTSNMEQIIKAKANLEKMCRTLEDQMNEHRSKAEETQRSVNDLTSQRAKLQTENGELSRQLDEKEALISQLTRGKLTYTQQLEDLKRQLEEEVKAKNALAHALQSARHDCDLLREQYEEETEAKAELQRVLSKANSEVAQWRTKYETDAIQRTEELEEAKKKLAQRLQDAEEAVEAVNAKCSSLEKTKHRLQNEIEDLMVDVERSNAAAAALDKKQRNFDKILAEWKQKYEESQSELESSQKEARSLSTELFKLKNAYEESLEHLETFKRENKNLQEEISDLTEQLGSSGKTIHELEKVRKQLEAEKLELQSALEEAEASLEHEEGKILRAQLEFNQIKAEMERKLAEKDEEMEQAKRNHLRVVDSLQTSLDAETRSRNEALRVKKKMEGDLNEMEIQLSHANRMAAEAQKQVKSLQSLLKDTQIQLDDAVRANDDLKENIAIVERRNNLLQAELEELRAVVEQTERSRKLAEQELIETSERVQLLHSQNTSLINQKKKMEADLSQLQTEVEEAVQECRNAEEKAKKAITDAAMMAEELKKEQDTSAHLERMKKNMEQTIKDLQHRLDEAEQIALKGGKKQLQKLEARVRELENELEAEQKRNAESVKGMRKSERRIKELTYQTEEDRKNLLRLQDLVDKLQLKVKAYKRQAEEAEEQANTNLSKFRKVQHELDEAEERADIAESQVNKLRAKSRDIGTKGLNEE
Outline: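 Yucatan minipig left-ventricle myofibrils; ATPase measured by PK/LDH-coupled NADH loss at 340 nm, read every 1.5-2 min for 75 min. Slopes normalized to vehicle (100%) and fit to 4-parameter logistic model; EC25 and, for inhibitors, EC50 calculated.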

Row | SMILES | Porcine Atria IC25 (Porcine Atria myofibrils) [µM] | Rabbit Psoas IC25 [1] [µM] | Porcine Ventricle IC25 [2] [µM]
1 | C[C@@H](NC(=O)CN1Cc2c(ccc(F)c2F)NC1=O)c1ccc(C#N)cn1 [Compound B135] | 0.51 | 1.618 | 15.88
2 | C[C@H](NC(=O)CN1Cc2c(ccc(F)c2F)NC1=O)c1ccc(C#N)cn1 [Compound B136] | 0.42 | 0.0645 | 0.764
3 | C[C@@H](NC(=O)CN1C(=O)Nc2ccc(F)cc2C12CC2)c1ccc(C#N)cn1 [Compound B137] | 0.12 | 0.1155 | 0.6995
4 | C[C@H](NC(=O)CN1C(=O)Nc2ccc(F)cc2C12CC2)c1ccc(C#N)cn1 [Compound B138] | 1.53 | 100 | 100
5 | N#Cc1c(F)ccc2c1CN(CC(=O)N[C@@H]1COc3cc(F)cc(F)c31)C(=O)N2 [Compound B139] | 0.05 | 0.01393 | 0.1215
6 | N#Cc1c(F)ccc2c1CN(CC(=O)N[C@H]1COc3cc(F)cc(F)c31)C(=O)N2 [Compound B140] | 1.10 | 1.501 | 55.23
7 | C[C@@H](NC(=O)CN1Cc2cc(C#N)ccc2NC1=O)c1ncc(C#N)cc1F [Compound B143] | 100.00 | 100 | 100
8 | C[C@H](NC(=O)CN1Cc2cc(C#N)ccc2NC1=O)c1ncc(C#N)cc1F [Compound B144, 2-(6-cyano-2-oxo-1,4-dihydroquinazolin-3-yl)-N-[(1S)-1-(5-cyano-3-fluoropyridin-2-yl)ethyl]acetamide] | 0.72 | 2.787 | 47.42
9 | O=C(CN1Cc2cc(F)ccc2NC1=O)N[C@H]1COc2cc(F)cc(F)c21 [Compound B146] | 1.52 | 5.163 | 68.33
10 | O=C(CN1Cc2c(ccc(F)c2F)NC1=O)N[C@H]1COc2cc(F)cc(F)c21 [Compound B148] | 0.85 | 0.4985 | 5.833
11 | C[C@@H](NC(=O)CN1C(=O)Nc2ccc(C#N)cc2C12CC2)c1ncc(F)cc1F [Compound B149] | 73.55 | 0.1803 | 100
12 | C[C@H](NC(=O)CN1C(=O)Nc2ccc(C#N)cc2C12CC2)c1ncc(F)cc1F [Compound B150] | 0.98 | 100 | 22.65
13 | C[C@@H](NC(=O)CN1Cc2c(C#N)cccc2NC1=O)c1ncc(F)cc1F [Compound B153] | 16.33 | 0.5161 | 100
14 | C[C@H](NC(=O)CN1Cc2c(C#N)cccc2NC1=O)c1ncc(F)cc1F [Compound B154] | 0.18 | 0.0315 | 2.518
15 | C[C@H](NC(=O)CN1C(=O)Nc2ccccc2[C@H]1C)c1ccc(F)cc1F [Compound B155] | 0.43 | 0.0851 | 3.17
16 | C[C@H](NC(=O)CN1C(=O)Nc2ccccc2[C@H]1C)c1ccc(F)cc1F [Compound B156] | 4.12 | 0.232 | 10.58
17 | CC(NC(=O)CN1Cc2cc(C#N)ccc2NC1=O)c1ncc(C#N)cc1F (stereo not drawn) [Compound B157] | 5.96 | 100 | 100

Other lines, results leading:

Row | Porcine Atria IC25 (Porcine Atria myofibrils) [µM] | Rabbit Psoas IC25 [1] [µM] | Porcine Ventricle IC25 [2] [µM] | SMILES
18 | 100.00 | 18.11 | 100 | C[C@@H]1c2ccccc2NC(=O)N1CC(=O)N[C@H](C)c1ncc(F)cc1F [Compound B158]
19 | 100.00 | 100 | 100 | C[C@@H](NC(=O)CN1C(=O)Nc2ccccc2[C@@H]1C)c1ncc(F)cc1F [Compound B159]
20 | 0.36 | 0.3154 | 4.311 | C[C@H](NC(=O)CN1Cc2c(ccc(C#N)c2F)NC1=O)c1ccc(F)cc1F [Compound B160, 2-(6-Cyano-5-fluoro-2-oxo-1,4-dihydroquinazolin-3-yl)-N-[(1S)-1-(2,4-difluorophenyl)ethyl]acetamide]
21 | 4.15 | 1.295 | 45.8 | C[C@H](NC(=O)CN1C(=O)Nc2ccccc2[C@H]1C)c1ncc(F)cc1F [Compound B161]
22 | 52.14 | 0.7039 | 100 | C[C@H](NC(=O)CN1C(=O)Nc2ccccc2[C@@H]1C)c1ncc(F)cc1F [Compound B162]
23 | 2.08 | 0.4728 | 31.68 | C[C@@H](NC(=O)CN1C(=O)Nc2ccc(F)cc2C12CC2)c1ncc(F)cc1F [Compound B163]
24 | 0.10 | 0.0273 | 0.3444 | C[C@H](NC(=O)CN1C(=O)Nc2ccc(F)cc2C12CC2)c1ncc(F)cc1F [Compound B164]
25 | 17.36 | 100 | 100 | C[C@@H]1c2ccccc2NC(=O)N1CC(=O)N[C@@H](CO)c1ncc(F)cc1F [Compound B165]
26 | 51.60 | 6.966 | 100 | C[C@H]1c2ccccc2NC(=O)N1CC(=O)N[C@@H](CO)c1ncc(F)cc1F [Compound B166]
27 | 100.00 | 100 | 100 | C[C@@H](C(=O)N[C@H](CO)c1ncc(F)cc1F)N1Cc2c(Cl)cccc2NC1=O [Compound B167]
28 | 100.00 | 100 | 100 | C[C@H](C(=O)N[C@H](CO)c1ncc(F)cc1F)N1Cc2c(Cl)cccc2NC1=O [Compound B168]
29 | 0.15 | 0.3955 | 1.354 | C[C@@H](C(=O)N[C@@H](CO)c1ncc(F)cc1F)N1Cc2c(Cl)cccc2NC1=O [Compound B169]
30 | 2.85 | 9.578 | 31.8 | C[C@H](C(=O)N[C@@H](CO)c1ncc(F)cc1F)N1Cc2c(Cl)cccc2NC1=O [Compound B170]
31 | 19.79 | 7.545 | 100 | C[C@@H](NC(=O)CN1Cc2cc(F)ccc2NC1=O)c1ccc(C#N)cn1 [Compound B171]
32 | 100.00 | 100 | 100 | C[C@@H](NC(=O)CN1Cc2cc(F)ccc2NC1=O)c1ncccc1F [Compound B173]
33 | 46.54 | 83 | 100 | C[C@H](NC(=O)CN1Cc2cc(F)ccc2NC1=O)c1ncccc1F [Compound B174]
34 | 100.00 | 100 | 100 | O=C(CN1Cc2c(ccc(F)c2F)NC1=O)N[C@H](CO)c1ncc(F)cc1F [Compound B175]
35 | 0.06 | 0.08998 | 0.3872 | O=C(CN1Cc2c(ccc(F)c2F)NC1=O)N[C@@H](CO)c1ncc(F)cc1F [Compound B176]
36 | 100.00 | 68.51 | 100 | C[C@@H](NC(=O)CN1Cc2cc(F)ccc2NC1=O)c1ccc(F)cc1F [Compound B177]
37 | 3.48 | 3.38 | 100 | COc1cnc([C@@H](C)NC(=O)CN2Cc3cc(F)ccc3NC2=O)c(F)c1 [Compound B178]
38 | 100.00 | 100 | 100 | O=C(CN1Cc2cc(F)ccc2NC1=O)N[C@H](CO)c1ncc(F)cc1F [Compound B180]
39 | 2.28 | 1.159 | 100 | Cc1cccnc1[C@@H](C)NC(=O)CN1Cc2c(ccc(F)c2F)NC1=O [Compound B182]
40 | 100.00 | 100 | 100 | Cc1cccnc1[C@H](C)NC(=O)CN1Cc2c(ccc(F)c2F)NC1=O [Compound B183]
41 | 57.48 | 100 | 56.86 | COc1cccnc1[C@@H](C)NC(=O)CN1Cc2c(ccc(F)c2F)NC1=O [Compound B184]
42 | 100.00 | 100 | 100 | COc1cccnc1[C@H](C)NC(=O)CN1Cc2c(ccc(F)c2F)NC1=O [Compound B185]
43 | 100.00 | 100 | 100 | COc1cccnc1[C@@H](C)NC(=O)CN1Cc2cc(F)ccc2NC1=O [Compound B186]
